Measured values from patent publication US11136301B2, “Broad spectrum antiviral compounds and uses thereof” (The Regents Of The University Of California, priority 2015, dated 2021).
Where two headings read alike, the source gives them in different places.

Assays:
[1] = system: wild-type HIV-1 (HIV-1LAI) in MT-4 cells (permissive); assay: Antiviral activity assay: wild-type HIV-1 in permissive MT4 cells, reverse transcriptase activity in culture supernatants; type: cell-based
[2] = system: wild-type HIV-1 (HIV-1LAI) in H9 cells (non-permissive); assay: microbe, parasite or virus in culture; type: cell-based
[3] = Human immunodeficiency virus 1, MT4, Table 2, wild-type HIV-1, permissive MT4 cells, read-out: Antiviral activity (IC50 μM) MT4
[4] = Human immunodeficiency virus 1, MT4, wild-type HIV-1 (HIV-1LAI), MT4 cells (permissive), RT activity in culture supernatants, compounds 1 to 50 μM, read-out: Antiviral activity (IC50 μM) MT4 cells
[5] = Human immunodeficiency virus 1, H9, read-out: Antiviral activity (IC50 μM) H9, Table 2, wild-type HIV-1, non-permissive H9 cells
[6] = Human immunodeficiency virus 1, H9, read-out: Antiviral activity (IC50 μM) H9 Cells, Table 4, wild-type HIV-1, non-permissive H9 cells
[7] = Human immunodeficiency virus 1, H9, read-out: Antiviral activity (IC50 μM) H9 Cells, Table 7, wild-type HIV-1, non-permissive H9 cells
[8] = Human immunodeficiency virus 1, H9, read-out: Antiviral activity (IC50 μM) H9 cells, Table 5, wild-type HIV-1, non-permissive H9 cells
[9] = Human immunodeficiency virus 1, H9, read-out: Antiviral activity (IC50 μM) H9 cells, Table 8, wild-type HIV-1, non-permissive H9 cells
[10] = Human immunodeficiency virus 1, H9, read-out: Antiviral activity (IC50 μM) H9 cells, wild-type HIV-1 (HIV-1LAI), H9 cells (non-permissive), RT activity in culture supernatants, compounds 1 to 50 μM
[11] = Human immunodeficiency virus 1, H9, read-out: IC50, anti-HIV-1 activity, non-permissive H9 cells

Structure (SMILES)	IC50 [1, 3] [µM]	IC50 [1, 4] [µM]	IC50 [2, 5] [µM]	IC50 [2, 6] [µM]	IC50 [2, 7] [µM]	IC50 [2, 8] [µM]	IC50 [2, 9] [µM]	IC50 [2, 10] [µM]	IC50 [2, 11] [µM]
COc1cccc(OC)c1-n1cc(-c2ccccc2Sc2ccc(C(=O)O)cc2)nn1 [Compound 6fx, 4-((2-(1-(2,6-Dimethoxyphenyl)-1H-1,2,3-triazol-4-yl)phenyl)thio)benzoic Acid]	> 50	> 50	1.9	1.9	1.9	1.9	1.9	1.9	1 to 3
COc1cccc(-n2cc(-c3ccccc3Sc3ccc(C(F)(F)F)cc3)nn2)c1OC [Compound 3dx, 1-(2,3-Dimethoxyphenyl)-4-(2-((4-(trifluoromethyl)phenyl)thio)phenyl)-1H-1,2,3-triazole]	> 50	> 50	1.9	1.9	1.9	1.9	1.9	1.9	1 to 3
COc1cccc(F)c1-n1cc(-c2ccccc2Sc2ccc(C(=O)O)cc2)nn1 [Compound 7fx, 4-((2-(1-(2-Fluoro-6-methoxyphenyl)-1H-1,2,3-triazol-4-yl)phenyl)thio)benzoic Acid]	> 50	> 50	4.9	4.9	4.9	4.9	4.9	4.9	–
COc1ccccc1-n1cc(-c2ccccc2Sc2ccc(N)cc2)nn1 [Compound 2ex, 4-((2-(1-(2-Methoxyphenyl)-1H-1,2,3-triazol-4-yl)phenyl)thio)aniline]	> 50	> 50	2.5	7.5	2.5	2.5	2.5	2.5	1 to 3
COC(=O)c1ccc(Sc2ccccc2-c2cn(-c3ccccc3OC)nn2)cc1 [Compound 2bx, Methyl 4-((2-(1-(2-methoxyphenyl)-1H-1,2,3-triazol-4-yl)phenyl)thio)benzoate]	> 50	> 50	> 50	–	–	> 50	> 50	> 50	–
COc1ccc(S(=O)(=O)c2ccccc2-c2cn(-c3cccc(OC)c3OC)nn2)cc1 [Compound 3cy, 1-(2,3-Dimethoxyphenyl)-4-(2-((4-methoxyphenyl)sulfonyl)phenyl)-1H-1,2,3-triazole]	> 50	> 50	> 50	–	–	> 50	> 50	> 50	–
COC(=O)c1ccc(S(=O)(=O)c2ccccc2-c2cn(-c3ccccc3OC)nn2)cc1 [Compound 2by, Methyl 4-((2-(1-(2-methoxyphenyl)-1H-1,2,3-triazol-4-yl)phenyl)sulfonyl)benzoate]	> 50	> 50	> 50	–	–	> 50	> 50	> 50	–
COC(=O)c1ccc(Sc2ccccc2-c2cn(-c3cccc(OC)c3OC)nn2)cc1 [Compound 3bx, Methyl 4-((2-(1-(2,3-dimethoxyphenyl)-1H-1,2,3-triazol-4-yl)phenyl)thio)benzoate]	> 50	> 50	8	8	8	8	8	8	–
COc1ccc(-n2cc(-c3ccccc3S(=O)(=O)c3ccc([N+](=O)[O-])cc3)nn2)c(OC)c1 [Compound 4ay, 1-(2,4-Dimethoxyphenyl)-4-(2-((4-nitrophenyl)sulfonyl)phenyl)-1H-1,2,3-triazole]	> 50	> 50	> 50	–	–	> 50	> 50	> 50	–
COc1cccc(F)c1-n1cc(-c2ccccc2Sc2ccc(N)cc2)nn1 [Compound 7ex, 4-((2-(1-(2-Fluoro-6-methoxyphenyl)-1H-1,2,3-triazol-4-yl)phenyl)thio)aniline]	> 50	> 50	> 50	–	–	> 50	> 50	> 50	–
COc1cccc(F)c1-n1cc(-c2ccccc2S(=O)(=O)c2ccc(N)cc2)nn1 [Compound 7ey, 4-((2-(1-(2-Fluoro-6-methoxyphenyl)-1H-1,2,3-triazol-4-yl)phenyl)sulfonyl)aniline]	> 50	> 50	15	15	15	15	15	15	–
COc1ccc(OC)c(-n2cc(-c3ccccc3Sc3ccc(N)cc3)nn2)c1 [Compound 5ex, 4-((2-(1-(2,5-Dimethoxyphenyl)-1H-1,2,3-triazol-4-yl)phenyl)thio)aniline]	> 50	> 50	> 50	–	–	> 50	> 50	> 50	–
COc1cccc(F)c1-n1cc(-c2ccccc2S(=O)(=O)c2ccc([N+](=O)[O-])cc2)nn1 [Compound 7ay, 1-(2-Fluoro-6-methoxyphenyl)-4-(2-((4-nitrophenyl)sulfonyl)phenyl)-1H-1,2,3-triazole]	> 50	> 50	> 50	–	–	> 50	> 50	> 50	–
COc1ccccc1-n1cc(-c2ccccc2Sc2ccc(C(=O)O)cc2)nn1 [Compound 2fx, 4-((2-(1-(2-Methoxyphenyl)-1H-1,2,3-triazol-4-yl)phenyl)thio)benzoic Acid]	> 50	> 50	1	1	1	1	1	1	1 to 3
COc1cccc(OC)c1-n1cc(-c2ccccc2S(=O)(=O)c2ccc([N+](=O)[O-])cc2)nn1 [Compound 6ay, 1-(2,6-Dimethoxyphenyl)-4-(2-((4-nitrophenyl)sulfonyl)phenyl)-1H-1,2,3-triazole]	> 50	> 50	> 50	–	–	> 50	> 50	> 50	–
COc1ccc(OC)c(-n2cc(-c3ccccc3Sc3ccc(C(=O)O)cc3)nn2)c1 [Compound 5fx, 4-((2-(1-(2,5-Dimethoxyphenyl)-1H-1,2,3-triazol-4-yl)phenyl)thio)benzoic Acid]	> 50	> 50	4.5	4.5	4.5	4.5	4.5	4.5	–
COc1cccc(F)c1-n1cc(-c2ccccc2S(=O)(=O)c2ccc(C(=O)O)cc2)nn1 [Compound 7fy, 4-((2-(1-(2-Fluoro-6-methoxyphenyl)-1H-1,2,3-triazol-4-yl)phenyl)sulfonyl)benzoic Acid]	> 50	> 50	> 50	–	–	> 50	> 50	> 50	–
COc1cccc(-n2cc(-c3ccccc3S(=O)(=O)c3ccc(N)cc3)nn2)c1OC [Compound 3ey, 4-((2-(1-(2,3-Dimethoxyphenyl)-1H-1,2,3-triazol-4-yl)phenyl)sulfonyl)aniline]	> 50	> 50	12.4	12.4	12.4	12.4	12.4	12.4	–
COc1cccc(-n2cc(-c3ccccc3S(=O)(=O)c3ccc(C(F)(F)F)cc3)nn2)c1OC [Compound 3dy, 1-(2,3-Dimethoxyphenyl)-4-(2-((4-(trifluoromethyl)phenyl)sulfonyl)phenyl)-1H-1,2,3-triazole]	> 50	> 50	> 50	–	–	> 50	> 50	> 50	–
COc1ccc(OC)c(-n2cc(-c3ccccc3S(=O)(=O)c3ccc(C(=O)O)cc3)nn2)c1 [Compound 5fy, 4-((2-(1-(2,5-Dimethoxyphenyl)-1H-1,2,3-triazol-4-yl)phenyl)sulfonyl)benzoic Acid]	> 50	> 50	> 50	–	–	> 50	> 50	> 50	–
COC(=O)c1ccc(S(=O)(=O)c2ccccc2-c2cn(-c3c(OC)cccc3OC)nn2)cc1 [Compound 6by, Methyl 4-((2-(1-(2,6-dimethoxyphenyl)-1H-1,2,3-triazol-4-yl)phenyl)sulfonyl)benzoate]	> 50	> 50	> 50	–	–	> 50	> 50	> 50	–
COc1ccc(-n2cc(-c3ccccc3Sc3ccc(C(=O)O)cc3)nn2)c(OC)c1 [Compound 4fx, 4-((2-(1-(2,4-Dimethoxyphenyl)-1H-1,2,3-triazol-4-yl)phenyl)thio)benzoic Acid]	> 50	> 50	7.1	7.1	7.1	7.1	7.1	7.1	–
COc1ccc(S(=O)(=O)c2ccccc2-c2cn(-c3c(F)cccc3OC)nn2)cc1 [Compound 7cy, 1-(2-Fluoro-6-methoxyphenyl)-4-(2-((4-methoxyphenyl)sulfonyl)phenyl)-1H-1,2,3-triazole]	> 50	> 50	> 50	–	–	> 50	> 50	> 50	–
